Data reported in patent publication US20250059174A1, “Pharmaceutical Compounds and Compositions as C-Kit Kinase Inhibitors” (Enanta Pharmaceuticals, Inc., priority 2023, published 2025).

Each compound was assayed on M-07e cells (assay: M-07e cellular assay (SCF-mediated cell proliferation)). Conditions: Homo sapiens, 72 hours, CellTiter Glo.
Format: cell-based
Summary of the method: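 Readout came from CellTiter Glo after 72 h of compound treatment in SCF (EC90)-stimulated, pre-starved M-07e cells at 37 °C.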

Structure (SMILES) | EC50
Cc1ncc(-c2noc(C3CN(CC(F)(F)F)C3)n2)cc1NC(=O)c1cnn2ccc(N3CC4(C3)CC(O)(C(F)F)C4)cc12 [Example 281-88] | < 100 nM
Cc1ccc(-c2noc([C@H]3C[C@@H]3F)n2)cc1NC(=O)c1cnc(-c2ccc3c(c2)C2(CCN(C(=O)OC(C)(C)C)CC2)C(=O)N3)o1 [Example 308-8] | 100 to 1000 nM
Cc1ccc(-c2cnc(OC(F)F)nc2)cc1NC(=O)c1cnn2ccc(N3CC4(COC4)C3)cc12 [Example 329] | 100 to 1000 nM
Cc1ccc(-c2noc([C@H]3C[C@@H]3F)n2)cc1NC(=O)c1cnc(-c2ccc3c(c2)C(C)(C)C(=O)N3)o1 [Example 308-37] | 100 to 1000 nM
Cc1ccc(-c2noc(C34CC(OC(F)F)(C3)C4)n2)cc1NC(=O)c1cnn2ccc(N3CC4(COC4)C3)cc12 [Example 271] | < 100 nM
Cc1ccc(-c2noc([C@H]3C[C@@H]3F)n2)cc1NC(=O)c1cnn2ccc(NC(=O)OC3CC3)cc12 [Example 94] | 100 to 1000 nM
Cc1ccc(-c2noc([C@H]3C[C@@H]3F)n2)cc1NC(=O)c1cnn2cc(Cl)ccc12 [Example 57] | 100 to 1000 nM
Cc1ccc(-c2noc([C@H]3C[C@@H](OC(F)F)C3)n2)cc1NC(=O)c1cnn2ccc(N3CC4(CCN(CC(F)(F)F)C4)C3)cc12 [Example 253] | 100 to 1000 nM
Cc1ccc(-c2noc([C@H]3C[C@@H](OC(F)F)C3(C)C)n2)cc1NC(=O)c1cnn2ccc(N3CC4(COC4)C3)cc12 [Example 250] | 100 to 1000 nM
Cc1nc(C)c(-c2ccn3ncc(C(=O)Nc4cc(-c5noc([C@H]6C[C@@H]6F)n5)ccc4C)c3c2)c(C)n1 [Example 171-4] | 100 to 1000 nM
Cc1ccc(-c2noc([C@H]3C[C@@H]3F)n2)cc1NC(=O)c1cnn2ccc(N3CCN(CC(F)(F)F)[C@H](C)C3)cc12 [Example 230] | < 100 nM
Cc1ccc(-c2noc([C@H]3C[C@@H]3F)n2)cc1NC(=O)c1cnn2ccc(-c3c(C)nc(N4CCC4)nc3C)cc12 [Example 171-12] | 100 to 1000 nM
Cc1ccc(-c2noc([C@H]3C[C@@H]3F)n2)cc1NC(=O)c1cnn2ccc(-c3c(C)nc(N4CC(F)(F)C4)nc3C)cc12 [Example 171-13] | 100 to 1000 nM
Cc1ccc(-c2noc([C@H]3C[C@@H]3F)n2)cc1NC(=O)c1cnn2ccc(N3CC(F)(C(F)(F)F)C3)cc12 [Example 223] | 100 to 1000 nM
Cc1ccc(-c2noc([C@H]3C[C@@H]3F)n2)cc1NC(=O)c1cnn2cc(Cl)c(Br)cc12 [Example 73] | > 1000 nM
Cc1ccc(-c2noc([C@H]3C[C@@H]3F)n2)cc1NC(=O)c1coc2ccccc12 [Example 39] | > 1000 nM
Cc1ccc(-c2noc([C@H]3C[C@@H](OC(F)(F)F)C3)n2)cc1NC(=O)c1cnn2ccc(N3CC4(CCN(CC(F)F)C4)C3)cc12 [Example 251] | 100 to 1000 nM
COc1ccc(-c2ccn3ncc(C(=O)Nc4cc(-c5noc([C@H]6C[C@@H]6F)n5)ccc4C)c3c2)c(C)n1 [Example 171-20] | < 100 nM
Cc1ccc(-c2noc([C@H]3C[C@@H]3F)n2)cc1NC(=O)c1cnn2ccc(N3CC4(CCC4)C3)cc12 [Example 227] | 100 to 1000 nM
Cc1ccc(-c2noc(C3CN(C(=O)C(F)(F)F)C3)n2)cc1NC(=O)c1cnn2ccc(N3CC4(COC4)C3)cc12 [Example 281-47] | > 1000 nM
O=C(Nc1cc(-c2noc([C@H]3C[C@@H](OC(F)(F)F)C3)n2)ccc1Cl)c1cnn2ccc(N3CC4(C3)CC(O)(C(F)F)C4)cc12 [Example 281-28] | < 100 nM
Cc1ccc(-c2noc([C@H]3C[C@@H]3F)n2)cc1NC(=O)c1cnn2ccc(-c3cnc(N(C)C)nc3)cc12 [Example 156] | < 100 nM
Cc1ccc(-c2noc([C@H]3C[C@@H]3F)n2)cc1NC(=O)c1cnn2ccc(N3CC4(CCOC4)C3)cc12 [Example 183] | < 100 nM
Cc1ccc(-c2noc(C3CN(C(=O)C4CC(F)(F)C4)C3)n2)cc1NC(=O)c1cnn2ccc(N3CC4(COC4)C3)cc12 [Example 281-49] | > 1000 nM
Cc1ccc(-c2noc([C@H]3C[C@@H]3F)n2)cc1NC(=O)c1cnn2ccc(-c3nnc(N)nc3C)cc12 [Example 171-1] | < 100 nM
Cc1ccc(-c2noc(C3CN(C(=O)N(C)C4CC4)C3)n2)cc1NC(=O)c1cnn2ccc(N3CC4(COC4)C3)cc12 [Example 281-50] | 100 to 1000 nM

The compounds below were run against Recombinant human c-KIT kinase (Homo sapiens (Human), UniProt P10721) (assay: c-KIT kinase chemiluminescence assay (ADP-Glo)). Conditions: ATP 50 μM.
Format: biochemical
Summary of the method: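 ADP formed by c-KIT on polyEY over 2 h at RT (after 30 min enzyme preincubation; Tris pH 7.5, MgCl2, BSA, DTT buffer) was detected by ADP-Glo luminescence. IC50 and Hill slope were fitted to control-normalized activity across compound concentrations.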

Chain of Recombinant human c-KIT kinase (P10721 26-976): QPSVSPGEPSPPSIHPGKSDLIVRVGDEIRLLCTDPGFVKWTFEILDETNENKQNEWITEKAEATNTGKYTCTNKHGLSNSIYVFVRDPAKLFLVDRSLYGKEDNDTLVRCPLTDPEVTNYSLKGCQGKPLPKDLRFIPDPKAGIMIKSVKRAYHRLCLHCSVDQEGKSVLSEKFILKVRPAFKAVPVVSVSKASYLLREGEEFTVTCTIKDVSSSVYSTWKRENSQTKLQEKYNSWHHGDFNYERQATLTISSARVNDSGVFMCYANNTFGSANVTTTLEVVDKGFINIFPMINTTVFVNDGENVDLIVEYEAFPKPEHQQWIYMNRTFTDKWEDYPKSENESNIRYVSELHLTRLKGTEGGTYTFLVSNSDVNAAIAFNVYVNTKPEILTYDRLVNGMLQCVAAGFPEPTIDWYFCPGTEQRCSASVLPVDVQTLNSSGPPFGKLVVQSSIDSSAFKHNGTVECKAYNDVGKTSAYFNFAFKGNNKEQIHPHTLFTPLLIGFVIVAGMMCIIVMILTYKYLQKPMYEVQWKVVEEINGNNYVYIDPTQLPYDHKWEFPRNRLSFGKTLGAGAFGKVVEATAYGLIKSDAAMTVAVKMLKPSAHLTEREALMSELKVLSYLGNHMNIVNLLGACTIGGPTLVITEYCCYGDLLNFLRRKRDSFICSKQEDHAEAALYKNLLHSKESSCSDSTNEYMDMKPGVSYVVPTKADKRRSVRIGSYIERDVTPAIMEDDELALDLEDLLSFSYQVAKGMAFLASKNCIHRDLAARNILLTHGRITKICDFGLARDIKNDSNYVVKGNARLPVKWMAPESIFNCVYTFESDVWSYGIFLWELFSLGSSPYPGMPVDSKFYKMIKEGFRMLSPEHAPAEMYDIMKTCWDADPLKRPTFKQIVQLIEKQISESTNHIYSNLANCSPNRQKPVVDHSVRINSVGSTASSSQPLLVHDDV

IC50 | Structure (SMILES)
< 100 nM | Cc1ccc(-c2cnc(OC(F)F)nc2)cc1NC(=O)c1cnn2ccc(N3CC4(COC4)C3)cc12 [Example 329]
< 100 nM | Cc1ccc(-c2noc(C34CC(OC(F)F)(C3)C4)n2)cc1NC(=O)c1cnn2ccc(N3CC4(COC4)C3)cc12 [Example 271]
100 to 1000 nM | Cc1ccc(-c2noc([C@H]3C[C@@H](OC(F)F)C3)n2)cc1NC(=O)c1cnn2ccc(N3CC4(CCN(CC(F)(F)F)C4)C3)cc12 [Example 253]
< 100 nM | Cc1ccc(-c2noc([C@H]3C[C@@H](OC(F)F)C3(C)C)n2)cc1NC(=O)c1cnn2ccc(N3CC4(COC4)C3)cc12 [Example 250]
< 100 nM | Cc1ccc(-c2noc([C@H]3C[C@@H]3F)n2)cc1NC(=O)c1cnn2ccc(N3CCN(CC(F)(F)F)[C@H](C)C3)cc12 [Example 230]
100 to 1000 nM | Cc1ccc(-c2noc([C@H]3C[C@@H]3F)n2)cc1NC(=O)c1cnn2ccc(N3CC(F)(C(F)(F)F)C3)cc12 [Example 223]
100 to 1000 nM | Cc1ccc(-c2noc([C@H]3C[C@@H](OC(F)(F)F)C3)n2)cc1NC(=O)c1cnn2ccc(N3CC4(CCN(CC(F)F)C4)C3)cc12 [Example 251]
< 100 nM | Cc1ccc(-c2noc([C@H]3C[C@@H]3F)n2)cc1NC(=O)c1cnn2ccc(N3CC4(CCC4)C3)cc12 [Example 227]
100 to 1000 nM | Cc1ccc(-c2noc(C3CN(C(=O)C(F)(F)F)C3)n2)cc1NC(=O)c1cnn2ccc(N3CC4(COC4)C3)cc12 [Example 281-47]
< 100 nM | O=C(Nc1cc(-c2noc([C@H]3C[C@@H](OC(F)(F)F)C3)n2)ccc1Cl)c1cnn2ccc(N3CC4(C3)CC(O)(C(F)F)C4)cc12 [Example 281-28]
< 100 nM | Cc1ccc(-c2noc([C@H]3C[C@@H]3F)n2)cc1NC(=O)c1cnn2ccc(N3CC4(CCOC4)C3)cc12 [Example 183]
> 1000 nM | Cc1ccc(-c2noc(C3CN(C(=O)C4CC(F)(F)C4)C3)n2)cc1NC(=O)c1cnn2ccc(N3CC4(COC4)C3)cc12 [Example 281-49]
100 to 1000 nM | Cc1ccc(-c2noc(C3CN(C(=O)N(C)C4CC4)C3)n2)cc1NC(=O)c1cnn2ccc(N3CC4(COC4)C3)cc12 [Example 281-50]

Second part, the compound before the results:

Structure (SMILES) | IC50
Cc1ncc(-c2noc(C3CN(CC(F)(F)F)C3)n2)cc1NC(=O)c1cnn2ccc(N3CC4(C3)CC(O)(C(F)F)C4)cc12 [Example 281-88] | 100 to 1000 nM
Cc1ccc(-c2noc([C@H]3C[C@@H]3F)n2)cc1NC(=O)c1cnc(-c2ccc3c(c2)C2(CCN(C(=O)OC(C)(C)C)CC2)C(=O)N3)o1 [Example 308-8] | > 1000 nM
Cc1ccc(-c2noc([C@H]3C[C@@H]3F)n2)cc1NC(=O)c1cnc(-c2ccc3c(c2)C(C)(C)C(=O)N3)o1 [Example 308-37] | 100 to 1000 nM
Cc1ccc(-c2noc([C@H]3C[C@@H]3F)n2)cc1NC(=O)c1cnn2ccc(NC(=O)OC3CC3)cc12 [Example 94] | 100 to 1000 nM
Cc1ccc(-c2noc([C@H]3C[C@@H]3F)n2)cc1NC(=O)c1cnn2cc(Cl)ccc12 [Example 57] | < 100 nM
Cc1nc(C)c(-c2ccn3ncc(C(=O)Nc4cc(-c5noc([C@H]6C[C@@H]6F)n5)ccc4C)c3c2)c(C)n1 [Example 171-4] | 100 to 1000 nM
Cc1ccc(-c2noc([C@H]3C[C@@H]3F)n2)cc1NC(=O)c1cnn2ccc(-c3c(C)nc(N4CCC4)nc3C)cc12 [Example 171-12] | 100 to 1000 nM
Cc1ccc(-c2noc([C@H]3C[C@@H]3F)n2)cc1NC(=O)c1cnn2ccc(-c3c(C)nc(N4CC(F)(F)C4)nc3C)cc12 [Example 171-13] | 100 to 1000 nM
Cc1ccc(-c2noc([C@H]3C[C@@H]3F)n2)cc1NC(=O)c1cnn2cc(Cl)c(Br)cc12 [Example 73] | > 1000 nM
Cc1ccc(-c2noc([C@H]3C[C@@H]3F)n2)cc1NC(=O)c1coc2ccccc12 [Example 39] | > 1000 nM
COc1ccc(-c2ccn3ncc(C(=O)Nc4cc(-c5noc([C@H]6C[C@@H]6F)n5)ccc4C)c3c2)c(C)n1 [Example 171-20] | < 100 nM
Cc1ccc(-c2noc([C@H]3C[C@@H]3F)n2)cc1NC(=O)c1cnn2ccc(-c3cnc(N(C)C)nc3)cc12 [Example 156] | < 100 nM
Cc1ccc(-c2noc([C@H]3C[C@@H]3F)n2)cc1NC(=O)c1cnn2ccc(-c3nnc(N)nc3C)cc12 [Example 171-1] | < 100 nM
